{
  "source": "patent US8034797B2",
  "about": "“Triazene compounds for the treatment of cancer” (Trin Therapeutics GmbH, priority 2007, dated 2011)",
  "key": {"Tumour-carrying mice": {"tested_on": "Tumour-carrying mice", "assay": "Nephrological tolerability (kidney post-mortem and histology)", "assay_type": "in vivo", "description": "A control group was treated only with the carrier according to a twice weekly treatment scheme.\nWhen the 28-day treatment period had ended, a post-mortem was carried out on the mice. […] The kidneys of all the animals in the test groups were removed by operation, fixed in formalin according to standard methods, embedded in paraffin and processed for HE staining."}, "MAXF 401": {"tested_on": "MAXF 401", "assay": "MAXF 401 breast tumour xenograft in nude mice", "assay_type": "in vivo", "conditions": "for Mortality: deaths/animals", "description": "All the tests were carried out using female nude mice under standard conditions for the keeping of animals with controlled illumination and temperature. The animals were given water and food as desired.\nThe increase in the volume of the individual tumours was measured using microcallipers, and the size of the tumour was calculated according to the formula a*b^2/2 (where a is the largest diameter of the tumour and b is the vertical axis). When the tumour volume had increased to 80-120 mm^3, the animals were allocated at random into test groups of in each case 6 animals.\nThe test compounds (in the form of sodium salts) were dissolved in a saline solution, and 5% Klucel (hydroxypropylcellulose) was added in order to dissolve all the test compounds in the same carrier. […] A volume of 10 ml/kg body weight was injected. Animals that received only the carrier served as control. The test compounds were treated according to the scheme of twice weekly administration over a period of […]. The tumour volume and the body weight were checked twice weekly, and the relative tumour volumes were calculated as the ratio of tumour size to body weight.\nOn the basis of the relative tumour volumes of the animals treated with the test compounds compared with the tumour volumes of the controls treated only with the carrier, the T/C values were calculated and were used as the index of anti-tumour activity.\nSubcutaneous implantation of the tumour and the determination of the tumour volume were carried out as described hereinbefore. The above-mentioned salts of the test substance were administered by ip injection twice weekly in the mentioned doses in the form of an aqueous solution, over a period of 4 weeks. […]\nSubcutaneous implantation of the tumour and the determination of tumour volumes were carried out as described hereinbefore. The test substance was administered by ip injection twice weekly in the mentioned doses in the form of the sodium salt as an aqueous solution, over a period of 4 weeks."}, "Solubility in water": {"assay": "Solubility in water", "assay_type": "physicochemical", "conditions": "for solubility: water"}, "MEXF 462": {"tested_on": "MEXF 462", "assay": "MEXF 462 melanoma xenograft model", "assay_type": "in vivo, nude mice", "conditions": "for outcome of treatment: equimolar doses ip twice weekly over 4 weeks", "description": "Breast tumours (MAXF 401) were implanted subcutaneously into the rear members of the mice aged 10 weeks. The increase in the volume of the individual tumours was measured using microcallipers, and the size of the tumour was calculated according to the formula a*b^2/2 (where a is the largest diameter of the tumour and b is the vertical axis). When the tumour volume had increased to 80-120 mm^3, the animals were allocated at random into test groups of in each case 6 animals. […]\nThe anti-tumour activity of the compounds was determined in the MEXF 462 xenograft tumour model in the nude mouse. Subcutaneous implantation of the tumour and the determination of tumour volumes were carried out as described hereinbefore. Groups of in each case 8 animals were used.\nEquimolar amounts of the compound of Example 8 were administered ip twice weekly in the form of a 5% DMSO solution over the mentioned period.\nThe progression over time of the anti-tumour action, expressed in % of the tumour volume at the beginning of the test, over the period of therapy is shown in Table 3."}, "Solubility in DMSO": {"assay": "Solubility in DMSO", "assay_type": "physicochemical", "conditions": "organic solvent or mixture, room temperature"}, "[1]": {"conditions": "kidney histology after 28-day twice weekly ip treatment, equimolar to 450 mg of stock composition, affected/animals"}, "[2]": {"conditions": "sodium salts ip, equimolar to 350 mg/kg of comparison compound, twice weekly over 5 weeks, 100% = no activity"}, "[3]": {"conditions": "sodium salts ip, equimolar to 350 mg/kg of comparison compound, twice weekly over 5 weeks"}, "[4]": {"conditions": "room temperature, read-out: solubility in water at room temperature"}},
  "note": "Counter-ions that a name gives are not always drawn.",
  "data": [
    {"smiles": "CN(C)N=Nc1ccc(C(=O)c2ccc(OCC(=O)[O-])cc2)cc1.[Na+]", "note": "[Ex. 30 of DE 1793115A]", "values": [
      {"measurement": "macroscopic findings of the kidneys at post-mortem", "setting": "Tumour-carrying mice; after 28-day treatment period", "result": "macroscopic changes (swelling, local discolouration) of the kidneys"},
      {"measurement": "renal histology finding", "setting": "Tumour-carrying mice; after 28-day treatment period", "result": "Marked focal tubular necrosis of the kidneys"},
      {"measurement": "Acute single-cell necrosis", "setting": "Tumour-carrying mice; [1]", "result": "4/9"},
      {"measurement": "Focal tubular necrosis", "setting": "Tumour-carrying mice; [1]", "result": "3/9"},
      {"measurement": "reduction in the tumour volume development", "setting": "MAXF 401; 350 mg/kg ip", "result": 50, "unit": "%"},
      {"measurement": "T/C value", "setting": "MAXF 401; [2]", "result": 48.5, "unit": "%"},
      {"measurement": "Mortality", "setting": "MAXF 401; [3]", "result": "2/6"}
    ]},
    {"smiles": "CN(C)/N=N/c1ccc(C(=O)c2ccc(OCC(=O)NCC(=O)O)cc2)cc1", "note": "[TRIS salt]", "values": [
      {"measurement": "remission", "setting": "MAXF 401; TRIS salt ip twice weekly, equimolar doses of 360, 400 and 500 mg/kg of the sodium salt, all doses", "result": "complete remission"},
      {"measurement": "solubility in water at 25° C.", "setting": "Solubility in water; 25° C.", "result": "about 250 g/litre"},
      {"measurement": "solubility", "setting": "Solubility in water; [4]", "result": 250, "unit": "mg/mL"}
    ]},
    {"smiles": "CN(C)/N=N/c1ccc(C(=O)c2ccc(OCCC(=O)NCCS(=O)(=O)[O-])cc2)cc1.[Na+]", "note": "[Example 9]", "values": [
      {"measurement": "solubility", "setting": "Solubility in water; [4]", "result": 666, "unit": "mg/mL"}
    ]},
    {"smiles": "COC(=O)CNC(=O)CCOc1ccc(C(=O)c2ccc(/N=N/N(C)C)cc2)cc1", "note": "[Example 1]", "values": [
      {"measurement": "melting point", "result": "104 to 105", "unit": "°C"}
    ]},
    {"smiles": "CN(C)/N=N/c1ccc(C(=O)c2ccc(OCCC(=O)NCC(=O)O)cc2)cc1", "note": "[Example 2, {3-[4(4-[(1E)-3,3-dimethyl-1-triazenyl]-benzoyl)-phenoxyl]propionylamino} acetic acid]", "values": [
      {"measurement": "T/C value", "setting": "MAXF 401; [2]", "result": 3.4, "unit": "%"},
      {"measurement": "Mortality", "setting": "MAXF 401; [3]", "result": "0/6"}
    ]},
    {"smiles": "CN(C)/N=N/c1ccc(C(=O)c2ccc(OCCC(=O)NC(CCC(N)=O)C(=O)O)cc2)cc1", "note": "(centres unmarked) [Example 7, 4-carbamoyl-2-{3-[4-(4-[(1E)-3,3-dimethyl-1-triazenyl]-benzoyl)-phenoxy]-propionylamino}-butanoic acid sodium salt]", "values": [
      {"measurement": "solubility", "setting": "Solubility in water; 25 °C, 25° C., read-out: solubility in water at 25° C.", "result": "~400", "unit": "mg/mL"},
      {"measurement": "tumour volume in % of the tumour volume at the beginning of the test, Mean", "setting": "MEXF 462; day 0, 350 mg/kg ip twice weekly", "result": 100, "unit": "%"},
      {"measurement": "tumour volume in % of the tumour volume at the beginning of the test, Mean", "setting": "MEXF 462; day 3, 350 mg/kg ip twice weekly", "result": 278, "unit": "%"},
      {"measurement": "tumour volume in % of the tumour volume at the beginning of the test, Mean", "setting": "MEXF 462; day 7, 350 mg/kg ip twice weekly", "result": 172, "unit": "%"},
      {"measurement": "tumour volume in % of the tumour volume at the beginning of the test, Mean", "setting": "MEXF 462; day 11, 350 mg/kg ip twice weekly", "result": 73, "unit": "%"},
      {"measurement": "tumour volume in % of the tumour volume at the beginning of the test, Mean", "setting": "MEXF 462; day 14, 350 mg/kg ip twice weekly", "result": 49, "unit": "%"},
      {"measurement": "tumour volume in % of the tumour volume at the beginning of the test, Mean", "setting": "MEXF 462; day 18, 350 mg/kg ip twice weekly", "result": 24, "unit": "%"},
      {"measurement": "tumour volume in % of the tumour volume at the beginning of the test, Mean", "setting": "MEXF 462; day 21, 350 mg/kg ip twice weekly", "result": 6, "unit": "%"},
      {"measurement": "tumour volume in % of the tumour volume at the beginning of the test, Mean", "setting": "MEXF 462; day 25, 350 mg/kg ip twice weekly", "result": 2, "unit": "%"},
      {"measurement": "tumour volume in % of the tumour volume at the beginning of the test, Mean", "setting": "MEXF 462; day 28, 350 mg/kg ip twice weekly", "result": 0.3, "unit": "%"},
      {"measurement": "outcome of treatment", "setting": "MEXF 462", "result": "complete remission"}
    ]},
    {"smiles": "CN(C)N=Nc1ccc(C(=O)c2ccc(OCC(=O)[O-])cc2)cc1.[Na+]", "note": "[Preparation 1]", "values": [
      {"measurement": "solubility", "setting": "Solubility in water; recrystallisation from water, read-out: Solubility (converted)", "result": 40, "unit": "mg/mL"}
    ]},
    {"smiles": "CN(C)/N=N/c1ccc(C(=O)c2ccc(OCC(=O)NCC(=O)O)cc2)cc1", "note": "[Example 4, {2-[4-(4-[(1E)-3,3-dimethyl-1-triazenyl]-benzoyl)-phenoxy]-acetylamino}acetic acid]", "values": [
      {"measurement": "T/C value", "setting": "MAXF 401; [2]", "result": 12.6, "unit": "%"},
      {"measurement": "Mortality", "setting": "MAXF 401; [3]", "result": "0/6"}
    ]},
    {"smiles": "CN(C)/N=N/c1ccc(C(=O)c2ccc(OCC(=O)NCC(=O)O)cc2)cc1", "note": "[Example 4a]", "values": [
      {"measurement": "T/C value", "setting": "MAXF 401; 400 mg/kg sodium salt ip twice weekly, after 4 weeks' therapy", "result": 12},
      {"measurement": "remission", "setting": "MAXF 401; 500 mg/kg sodium salt ip twice weekly, within 3 weeks of treatment", "result": "complete remission"},
      {"measurement": "salting-out effect in 0.9% NaCl", "setting": "Solubility in water; 0.9% NaCl", "result": "pronounced salting-out effect"},
      {"measurement": "solubility in water at 25° C.", "setting": "Solubility in water; 25° C.", "result": "about 4 g/litre"},
      {"measurement": "solubility in water at 25° C.", "setting": "Solubility in water; 25° C.; listed as Example 4a)", "result": 4, "unit": "mg/mL"}
    ]},
    {"smiles": "CN(C)/N=N/c1ccc(C(=O)c2ccc(OCCC(=O)NCC(N)=O)cc2)cc1", "note": "[Example 8]", "values": [
      {"measurement": "solubility", "setting": "Solubility in DMSO", "result": 833, "unit": "mg/mL"},
      {"measurement": "tumour volume in % of the tumour volume at the beginning of the test, Mean", "setting": "MEXF 462; day 0, 285 mg/kg ip twice weekly, 5% DMSO solution", "result": 100, "unit": "%"},
      {"measurement": "tumour volume in % of the tumour volume at the beginning of the test, Mean", "setting": "MEXF 462; day 3, 285 mg/kg ip twice weekly, 5% DMSO solution", "result": 293, "unit": "%"},
      {"measurement": "tumour volume in % of the tumour volume at the beginning of the test, Mean", "setting": "MEXF 462; day 7, 285 mg/kg ip twice weekly, 5% DMSO solution", "result": 369, "unit": "%"},
      {"measurement": "tumour volume in % of the tumour volume at the beginning of the test, Mean", "setting": "MEXF 462; day 11, 285 mg/kg ip twice weekly, 5% DMSO solution", "result": 174, "unit": "%"},
      {"measurement": "tumour volume in % of the tumour volume at the beginning of the test, Mean", "setting": "MEXF 462; day 14, 285 mg/kg ip twice weekly, 5% DMSO solution", "result": 134, "unit": "%"},
      {"measurement": "tumour volume in % of the tumour volume at the beginning of the test, Mean", "setting": "MEXF 462; day 18, 285 mg/kg ip twice weekly, 5% DMSO solution", "result": 107, "unit": "%"},
      {"measurement": "tumour volume in % of the tumour volume at the beginning of the test, Mean", "setting": "MEXF 462; day 21, 285 mg/kg ip twice weekly, 5% DMSO solution", "result": 151, "unit": "%"},
      {"measurement": "tumour volume in % of the tumour volume at the beginning of the test, Mean", "setting": "MEXF 462; day 25, 285 mg/kg ip twice weekly, 5% DMSO solution", "result": 172, "unit": "%"},
      {"measurement": "tumour volume in % of the tumour volume at the beginning of the test, Mean", "setting": "MEXF 462; day 28, 285 mg/kg ip twice weekly, 5% DMSO solution", "result": 271, "unit": "%"},
      {"measurement": "outcome of treatment", "setting": "MEXF 462", "result": "pronounced slowing down of tumour growth"}
    ]}
  ]
}
